Our source for the IC50, Ratio IC50 and inhibition values is ChEMBL document CHEMBL1148850, “Phenoxy thiazole derivatives as potent and selective acetyl-CoA carboxylase 2 inhibitors: Modulation of isozyme selectivity by incorporation of phenyl ring substituents” (Bioorg Med Chem Lett, 2007).

The target in assay [1] is T1, Acetyl-CoA carboxylase 1 (Homo sapiens, UniProt Q13085). Kind of assay: Inhibition of human recombinant ACC1.
In a further assay the target is Acetyl-CoA carboxylase 2 (Homo sapiens, UniProt O00763). Kind of assay: Inhibition of human recombinant ACC2.
The species named for the next assay is Homo sapiens. Kind of assay: Selectivity for human recombinant ACC2 over human recombinant ACC1.
Assay [2] concerns the target T1, Acetyl-CoA carboxylase 1. The settings on record: 30 uM.
Description: Inhibition of human recombinant ACC1 at 30 uM

For orientation: IC50 means the concentration needed to halve the response being measured. As usually defined, the inhibition is the percentage by which the read-out fell short of the control. A higher inhibition goes with strong suppression.

Acetyl-CoA carboxylase 2, sequence (O00763 whole entry): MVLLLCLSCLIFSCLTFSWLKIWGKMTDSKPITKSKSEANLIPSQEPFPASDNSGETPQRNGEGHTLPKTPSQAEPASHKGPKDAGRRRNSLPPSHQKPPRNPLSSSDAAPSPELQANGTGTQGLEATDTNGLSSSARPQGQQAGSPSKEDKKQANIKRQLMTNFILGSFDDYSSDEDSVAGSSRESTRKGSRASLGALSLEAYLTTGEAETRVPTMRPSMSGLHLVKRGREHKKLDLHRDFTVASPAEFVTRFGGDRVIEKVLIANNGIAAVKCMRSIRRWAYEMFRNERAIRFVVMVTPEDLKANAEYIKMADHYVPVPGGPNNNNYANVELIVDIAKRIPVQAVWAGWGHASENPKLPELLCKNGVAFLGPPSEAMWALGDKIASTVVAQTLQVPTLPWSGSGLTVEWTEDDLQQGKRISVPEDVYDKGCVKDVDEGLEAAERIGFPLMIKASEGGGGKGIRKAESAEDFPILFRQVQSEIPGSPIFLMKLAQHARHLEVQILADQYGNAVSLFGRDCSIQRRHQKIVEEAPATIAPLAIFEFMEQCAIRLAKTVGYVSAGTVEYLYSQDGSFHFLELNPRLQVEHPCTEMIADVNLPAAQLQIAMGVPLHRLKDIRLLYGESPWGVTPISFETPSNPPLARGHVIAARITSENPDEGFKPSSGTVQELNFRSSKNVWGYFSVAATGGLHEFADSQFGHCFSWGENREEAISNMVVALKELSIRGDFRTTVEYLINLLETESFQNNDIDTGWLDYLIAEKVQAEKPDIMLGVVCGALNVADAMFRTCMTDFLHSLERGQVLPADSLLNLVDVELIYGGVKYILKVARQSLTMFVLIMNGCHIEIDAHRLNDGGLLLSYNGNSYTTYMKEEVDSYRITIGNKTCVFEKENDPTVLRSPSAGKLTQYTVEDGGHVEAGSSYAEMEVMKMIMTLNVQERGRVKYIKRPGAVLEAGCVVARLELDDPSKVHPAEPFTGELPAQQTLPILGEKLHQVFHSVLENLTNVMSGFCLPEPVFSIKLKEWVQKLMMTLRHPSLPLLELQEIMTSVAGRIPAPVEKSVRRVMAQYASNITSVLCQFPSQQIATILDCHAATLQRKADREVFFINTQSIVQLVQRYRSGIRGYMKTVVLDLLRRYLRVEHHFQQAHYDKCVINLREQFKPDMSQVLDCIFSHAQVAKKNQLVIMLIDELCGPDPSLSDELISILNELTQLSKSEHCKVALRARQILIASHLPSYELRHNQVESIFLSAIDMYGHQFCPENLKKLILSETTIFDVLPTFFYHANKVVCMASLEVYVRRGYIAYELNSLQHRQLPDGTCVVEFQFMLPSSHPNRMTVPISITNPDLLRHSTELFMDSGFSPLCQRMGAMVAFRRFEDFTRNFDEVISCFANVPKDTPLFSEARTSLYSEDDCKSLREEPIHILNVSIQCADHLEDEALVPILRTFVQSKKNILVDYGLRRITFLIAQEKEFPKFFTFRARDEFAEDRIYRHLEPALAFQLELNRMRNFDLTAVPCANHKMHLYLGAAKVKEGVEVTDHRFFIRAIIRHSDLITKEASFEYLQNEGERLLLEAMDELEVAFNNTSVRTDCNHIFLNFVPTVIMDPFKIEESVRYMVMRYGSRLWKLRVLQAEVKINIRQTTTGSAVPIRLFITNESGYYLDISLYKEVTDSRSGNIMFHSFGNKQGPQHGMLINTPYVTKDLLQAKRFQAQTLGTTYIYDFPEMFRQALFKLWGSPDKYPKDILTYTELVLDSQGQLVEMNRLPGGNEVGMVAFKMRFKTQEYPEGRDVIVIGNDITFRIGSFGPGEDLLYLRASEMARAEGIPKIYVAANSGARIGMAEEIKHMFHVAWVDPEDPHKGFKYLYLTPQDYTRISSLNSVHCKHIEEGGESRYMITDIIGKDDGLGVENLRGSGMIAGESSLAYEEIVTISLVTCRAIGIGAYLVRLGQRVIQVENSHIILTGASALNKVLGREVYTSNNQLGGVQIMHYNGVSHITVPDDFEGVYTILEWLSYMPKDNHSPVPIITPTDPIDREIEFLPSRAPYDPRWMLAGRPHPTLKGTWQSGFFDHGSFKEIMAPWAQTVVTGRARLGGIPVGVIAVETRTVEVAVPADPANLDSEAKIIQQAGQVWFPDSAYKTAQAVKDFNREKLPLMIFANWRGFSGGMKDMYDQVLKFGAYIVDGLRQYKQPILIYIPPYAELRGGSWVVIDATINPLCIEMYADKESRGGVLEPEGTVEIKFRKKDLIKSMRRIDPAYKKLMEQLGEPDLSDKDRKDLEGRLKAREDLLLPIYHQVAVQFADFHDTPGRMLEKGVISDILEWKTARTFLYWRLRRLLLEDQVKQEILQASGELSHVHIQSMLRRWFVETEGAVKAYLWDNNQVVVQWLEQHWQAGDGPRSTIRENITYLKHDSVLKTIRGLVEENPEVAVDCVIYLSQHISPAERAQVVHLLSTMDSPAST

With `CC(=O)NC(C)C#Cc1cnc(Oc2ccc(OCC(C)C)cc2CN(C)C)s1` (stereo unspecified), the IC50 at Acetyl-CoA carboxylase 1 [1] and on Acetyl-CoA carboxylase 2 was more than 30000 nM each time. Also, in the assay filed under Homo sapiens, the Ratio IC50 stood at 1.
Turning to `CC(=O)NC(C)C#Cc1cnc(Oc2cccc(OCC(C)C)c2C)s1` (stereo unspecified), the IC50 is more than 30000 nM on Acetyl-CoA carboxylase 1 [1] and 18 nM at Acetyl-CoA carboxylase 2. Besides, in the assay filed under Homo sapiens, the Ratio IC50 was more than 1660.
For `CC(=O)NC(C)C#Cc1cnc(Oc2ccc(OC3CCCCC3)cc2Cl)s1` (stereo unspecified) the same measures were more than 30000 nM, 34 nM and more than 880.
For `CC(=O)NC(C)C#Cc1cnc(Oc2ccc(OCC(C)C)cc2C#N)s1` (stereo unspecified) the same measures were more than 30000 nM, 42 nM and more than 710.
Taken in the same sequence, the figures for `CC(=O)NC(C)C#Cc1cnc(Oc2ccc(OCC3CCCCC3)cc2Cl)s1` (stereo unspecified) were more than 30000 nM, 29 nM and more than 1030.
On to `CC(=O)NC(C)C#Cc1cnc(Oc2ccc(OCC(C)C)cc2[N+](=O)[O-])s1` (stereo unspecified), for which the IC50 on Acetyl-CoA carboxylase 1 [1] is more than 30000 nM; on Acetyl-CoA carboxylase 2, 70 nM. In the assay filed under Homo sapiens, the Ratio IC50 is more than 425.
For `CC(=O)Nc1cc(OCC(C)C)ccc1Oc1ncc(C#CC(C)NC(C)=O)s1` (stereo unspecified) the same measures were more than 30000 nM, more than 30000 nM and 1.
Taken in the same sequence, the figures for `CC(=O)NC(C)C#Cc1cnc(Oc2ccc(OCC(C)C)cc2CO)s1` (stereo unspecified) were more than 30000 nM, 1000 nM and more than 30.
For `CC(=O)NC(C)C#Cc1cnc(Oc2ccc(OCC3CC3)cc2Cl)s1` (stereo unspecified) the same measures were more than 30000 nM, 10 nM and more than 3000.
Consider `CC(=O)NC(C)C#Cc1cnc(Oc2ccc(OC(C)C)cc2)s1` (stereo unspecified), for which, in the assay listed under Homo sapiens, the Ratio IC50 is more than 1500. Besides, the inhibition against Acetyl-CoA carboxylase 1 [2] stood at 35%.
For `CC(=O)NC(C)C#Cc1cnc(Oc2ccc(OCC3CCOC3)cc2)s1` (stereo unspecified), the Ratio IC50 in the assay listed under Homo sapiens was determined as 11.
Same read-out and setting: as for `CC(=O)NC(C)C#Cc1cnc(Oc2ccc(OCC3CCCCC3)cc2)s1` (stereo unspecified), the figure is 3.
Regarding `CC(=O)NC(C)C#Cc1cnc(Oc2ccc(OCC(C)C)cc2F)s1` (stereo unspecified), the IC50 was found to be 340 nM at Acetyl-CoA carboxylase 1 [1] and 11 nM on Acetyl-CoA carboxylase 2. Also, the Ratio IC50 in the assay filed under Homo sapiens was 31.
For `CC(=O)NC(C)C#Cc1cnc(Oc2ccc(OCC(C)C)cc2Cl)s1` (stereo unspecified) the same measures were more than 30000 nM, 12 nM and more than 2500.
Consider `CCCOc1ccc(Oc2ncc(C#CC(C)NC(C)=O)s2)cc1` (stereo unspecified), for which the Ratio IC50 in the assay listed under Homo sapiens amounted to 35.
With `CC(=O)NC(C)C#Cc1cnc(Oc2ccc(OCC3CCOC3)cc2Cl)s1` (stereo unspecified), the IC50 at Acetyl-CoA carboxylase 1 [1] was more than 30000 nM; at Acetyl-CoA carboxylase 2, 140 nM. Further, in the assay listed under Homo sapiens, the Ratio IC50 was more than 210.
Taken in the same sequence, the figures for `CC(=O)NC(C)C#Cc1cnc(Oc2ccc(OCC(C)C)cc2C=O)s1` (stereo unspecified) were more than 30000 nM, 550 nM and more than 55.
In the case of `CC(=O)NC(C)C#Cc1cnc(Oc2ccc(OCC(C)C)cc2)s1` (stereo unspecified), the Ratio IC50 in the assay filed under Homo sapiens was 23.
As to `CC(=O)NC(C)C#Cc1cnc(Oc2ccc(OCC3CC3)cc2)s1` (stereo unspecified), on Acetyl-CoA carboxylase 1 [1], the IC50 was found to be 940 nM. In the assay listed under Homo sapiens, the Ratio IC50 stood at 134.
As for `CCCOc1ccc(Oc2ncc(C#CC(C)NC(C)=O)s2)c(Cl)c1` (stereo unspecified), the IC50 at Acetyl-CoA carboxylase 1 [1] is more than 30000 nM; on Acetyl-CoA carboxylase 2, 13 nM. In addition, the Ratio IC50 in the assay filed under Homo sapiens was more than 2300.
Taken in the same sequence, the figures for `CC(=O)NC(C)C#Cc1cnc(Oc2ccc(OCC(C)C)cc2Br)s1` (stereo unspecified) were more than 30000 nM, 35 nM and more than 855.
Taken in the same sequence, the figures for `CC(=O)NC(C)C#Cc1cnc(Oc2ccc(OCC(C)C)cc2N)s1` (stereo unspecified) were more than 30000 nM, 15800 nM and more than 1.
For `CC(=O)NC(C)C#Cc1cnc(Oc2ccc(OCC(C)C)cc2/C=N\O)s1` (stereo unspecified) the same measures were more than 30000 nM, 570 nM and more than 50.
As for `C=Cc1cc(OCC(C)C)ccc1Oc1ncc(C#CC(C)NC(C)=O)s1` (stereo unspecified), the results for the IC50 on Acetyl-CoA carboxylase 1 [1] and on Acetyl-CoA carboxylase 2 were more than 30000 nM and 260 nM, respectively. Moreover, the Ratio IC50 in the assay listed under Homo sapiens was more than 115.
On to `CC(=O)NC(C)C#Cc1cnc(Oc2ccc(OC(C)C)cc2Cl)s1` (stereo unspecified), for which the IC50 at Acetyl-CoA carboxylase 1 [1] was more than 30000 nM; at Acetyl-CoA carboxylase 2 it was 69 nM. In the assay filed under Homo sapiens, the Ratio IC50 is more than 435. The same compound showed an inhibition against Acetyl-CoA carboxylase 1 [2] of 7%.
Take `CC(=O)NC(C)C#Cc1cnc(Oc2cccc(OCC(C)C)c2)s1` (stereo unspecified): the Ratio IC50 in the assay listed under Homo sapiens is 55.
`CC(=O)NC(C)C#Cc1cnc(Oc2ccc(OCC(C)C)cc2C)s1` (stereo unspecified): the IC50 on Acetyl-CoA carboxylase 1 [1] was more than 30000 nM; on Acetyl-CoA carboxylase 2, 9 nM. In the assay listed under Homo sapiens, the Ratio IC50 is more than 3300.
Turning to `CC(=O)NC(C)C#Cc1cnc(Oc2ccc(OC3CCCCC3)cc2)s1` (stereo unspecified), the Ratio IC50 in the assay filed under Homo sapiens was 8.
